In PubChem BioAssay (NCI):
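The compound was tested at five concentrations on cells cultured in 96-well plates, with a 48-hour exposure period. The concentration for 50% growth inhibition is given as GI50. TGI: concentration producing complete growth inhibition.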

Experiments:
Assay in all cases: NCI tumour cell line growth inhibition, 48 h
786-0 renal = tested on: 786-0 renal
A498 renal = tested on: A498 renal
A549 NSCLC = tested on: A549 NSCLC
ACHN renal = tested on: ACHN renal
BT-549 breast = tested on: BT-549 breast
CAKI-1 renal = tested on: CAKI-1 renal
CCRF-CEM leukemia = tested on: CCRF-CEM leukemia
COLO 205 colon = tested on: COLO 205 colon
DU-145 prostate = tested on: DU-145 prostate
EKVX NSCLC = tested on: EKVX NSCLC
HCC-2998 colon = tested on: HCC-2998 colon
HCT-116 colon = tested on: HCT-116 colon
HCT-15 colon = tested on: HCT-15 colon
HL-60(TB) leukemia = tested on: HL-60(TB) leukemia
HOP-62 NSCLC = tested on: HOP-62 NSCLC
HOP-92 NSCLC = tested on: HOP-92 NSCLC
HS 578T breast = tested on: HS 578T breast
HT29 colon = tested on: HT29 colon
IGROV1 ovarian = tested on: IGROV1 ovarian
K-562 leukemia = tested on: K-562 leukemia
KM12 colon = tested on: KM12 colon
LOX IMVI melanoma = tested on: LOX IMVI melanoma
M14 melanoma = tested on: M14 melanoma
MALME-3M melanoma = tested on: MALME-3M melanoma
MCF7 breast = tested on: MCF7 breast
MDA-MB-231 breast = tested on: MDA-MB-231 breast
MDA-MB-435 = tested on: MDA-MB-435
MOLT-4 leukemia = tested on: MOLT-4 leukemia
NCI-H226 lung = tested on: NCI-H226 lung

In the case of CCNCCOc1ccc(/C(=C(/CC)c2ccc(Cl)cc2)c2ccc(OCCCN(C)C)cc2)cc1, the GI50 (786-0 renal) is reported as 3.57 µM, the TGI (786-0 renal) is reported as 7.44 µM and the GI50 (A498 renal) is reported as 3.38 µM. The TGI (A498 renal) was 6.98 µM, the GI50 (A549 NSCLC) was 3.33 µM and the TGI (A549 NSCLC) was 7.15 µM. For the same molecule, the GI50 (ACHN renal) was 4.41 µM, the TGI (ACHN renal) was 8.02 µM and the GI50 (BT-549 breast) was 3.45 µM. For the same molecule, the TGI (BT-549 breast) was 7.16 µM, the GI50 (CAKI-1 renal) was 4.39 µM and the TGI (CAKI-1 renal) was 8.05 µM. It also gave a GI50 (CCRF-CEM leukemia) of 5.08 µM, a TGI (CCRF-CEM leukemia) of 11.4 µM and a GI50 (COLO 205 colon) of 3.13 µM. It also gave a TGI (COLO 205 colon) of 7.84 µM, a GI50 (DU-145 prostate) of 3.99 µM and a TGI (DU-145 prostate) of 7.5 µM. The GI50 (EKVX NSCLC) was 4.32 µM, the TGI (EKVX NSCLC) was 8.1 µM and the GI50 (HCC-2998 colon) was 3.93 µM. The TGI (HCC-2998 colon) was 7.72 µM, the GI50 (HCT-116 colon) was 2780 nM and the TGI (HCT-116 colon) was 6.48 µM. For the same molecule, the GI50 (HCT-15 colon) was 2190 nM, the TGI (HCT-15 colon) was 5.54 µM and the GI50 (HL-60(TB) leukemia) was 5.83 µM. It also gave a TGI (HL-60(TB) leukemia) of 11.1 µM, a GI50 (HOP-62 NSCLC) of 4.24 µM and a TGI (HOP-62 NSCLC) of 8.69 µM. For the same molecule, the GI50 (HOP-92 NSCLC) was 818 nM, the TGI (HOP-92 NSCLC) was 4.47 µM and the GI50 (HS 578T breast) was 3.26 µM. It also gave a TGI (HS 578T breast) of 7.63 µM, a GI50 (HT29 colon) of 980 nM and a TGI (HT29 colon) of 3.79 µM. The GI50 (IGROV1 ovarian) was 4.17 µM, the TGI (IGROV1 ovarian) was 7.85 µM and the GI50 (K-562 leukemia) was 933 nM. It also gave a TGI (K-562 leukemia) of 2430 nM, a GI50 (KM12 colon) of 3.94 µM and a TGI (KM12 colon) of 7.59 µM. For the same molecule, the GI50 (LOX IMVI melanoma) was 3.72 µM, the TGI (LOX IMVI melanoma) was 7.37 µM and the GI50 (M14 melanoma) was 4.3 µM. The TGI (M14 melanoma) was 8.31 µM, the GI50 (MALME-3M melanoma) was 3.95 µM and the TGI (MALME-3M melanoma) was 7.57 µM. It also gave a GI50 (MCF7 breast) of 1300 nM, a TGI (MCF7 breast) of 4.94 µM and a GI50 (MDA-MB-231 breast) of 4.06 µM. It also gave a TGI (MDA-MB-231 breast) of 7.73 µM, a GI50 (MDA-MB-435) of 3.77 µM and a TGI (MDA-MB-435) of 7.34 µM. It also gave a GI50 (MOLT-4 leukemia) of 4.56 µM, a TGI (MOLT-4 leukemia) of 9.41 µM and a GI50 (NCI-H226 lung) of 3.74 µM.
